Values after ≈ are worked out from the molar mass of the structure shown.
Columns and labels:
[1] = system: E. coli JM83 cells harboring pUC19; assay: Minimum inhibitory concentrations on LB plates, cells harboring pUC19; type: cell-based; conditions: Escherichia coli, cells with pUC19, 37 °C, 20 h, same for 3.5 × 10^5 and 3.5 × 10^3 cells
Protocol: (§1) The E. coli wild-type cells harboring pUC19 or pSP007 plasmid were grown overnight in LB medium containing ampicillin. The cells were diluted 10- and 1000-times, and 5 µl of each dilution (corresponding to 3.5×10^5 cells and 3.5×10^3 cells, respectively) was spotted on LB plates containing serial dilutions of kanamycin, chloramphenicol, spectinomycin, tetracycline and DHCP. Plates were incubated at 37° C. for 20 h. […] The MIC values for cells harboring pUC19 and pSP007 were same for spectinomycin, chloramphenicol and tetracycline. The MIC value was two times higher for kanamycin for the cells harboring pSP007 than the cells with pUC19. The MIC value for DHCP on the other hand was 8 times higher for the cells-harboring pSP007 than that for the cells with pUC19.
(§2) MICs for both dilutions of the cells (3.5×10^5 and 3.5×10^3) were the same.

[2] = system: E. coli JM83 cells harboring pSP007; assay: Minimum inhibitory concentrations on LB plates, cells harboring pSP007 (dep, ORF389); type: cell-based, Escherichia coli; conditions: for MIC: Escherichia coli, cells with pSP007, LB plates, 37 °C, 20 h, same for 3.5 × 10^5 and 3.5 × 10^3 cells; for MIC value for cells harboring pSP007 relative to cells with pUC19: pSP007 versus pUC19
Protocol: as §1, §2

[3] = system: E. coli wild-type strain JM83; assay: Effect of DHCP on the growth of E. coli in LB medium (Klett units); type: cell-based, Escherichia coli; conditions: for effect on growth: LB medium
Protocol: (§3) A. The JM83 cells were grown in LB medium up to Klett unit of 50 and DHCP was added at various concentrations (0-400 µM). After the growth reached to Klett unit of 90-100, cells were diluted with medium containing respective concentrations of DHCP and growth was further monitored. DHCP concentration: 0 . mu.M, open squares; 50 . mu.M, closed diamonds; 100 µM, open circles; 250 . mu.M, open diamonds; 400 . mu.M closed squares. [0023] B. Overnight grown cells of E. coli JM83 were diluted appropriately and plated on LB plates containing different concentrations of DHCP (0-350 . mu.M). The number of colonies on the plate without DHCP was taken as 100% and the other numbers were expressed as relative percentages.
The E. coli wild-type strain JM83 [F^-araΔ (lac-proAB) rpsL(st^r)](Yanisch-Perron et al., 1985) was grown in Luria broth (LB). Media were supplemented with ampicillin (final concentration of 50 . mu.g/ml) whenever required. To check the effect of DHCP on the growth of E. coli, cells grown overnight in LB medium were diluted into fresh LB medium. After the growth reached to the Klett unit of 50, DHCP was added at various concentrations (0-400 . mu.M) and growth was further monitored. After it reached to the Klett unit of 90-100, it was diluted I O-fold into media containing respective concentrations of DHCP. […] In the presence of 400 . mu.M DHCP, cell growth stopped after 4 h of incubation.

E. coli JM83 = assay: Colony formation ability of E. coli on LB plates containing DHCP; type: cell-based, Escherichia coli
Protocol: as §3
To check the colony formation ability of E. coli at various concentrations of DHCP, cells grown overnight in LB medium were diluted appropriately and plated on LB plates containing DHCP (0-350 . mu.M). After incubation at 37. degree. C., the number of colonies on each plate were counted. The number of colonies on the control plate without DHCP was taken as 100% and the other numbers were expressed as relative percentages (FIG. 2B). In the presence of 300 µM DHCP, 100-fold decrease in the colony numbers was observed.

SMILES: O=C(N[C@H](CO)[C@H](O)c1ccc([N+](=O)[O-])cc1)C(Cl)Cl [chloramphenicol]
- MIC [1]: 6.25 µg/mL (≈ 19.3 µM)
- MIC [2]: 6.25 µg/mL (≈ 19.3 µM)
- MIC value for cells harboring pSP007 relative to cells with pUC19 [2]: same

SMILES: CN(C)[C@@H]1C(O)=C(C(N)=O)C(=O)[C@@]2(O)C(O)=C3C(=O)c4c(O)cccc4[C@@](C)(O)[C@H]3C[C@@H]12 [tetracycline]
- MIC [1]: 3.12 µg/mL (≈ 7.03 µM)
- MIC [2]: 3.12 µg/mL (≈ 7.03 µM)

SMILES: O=C1C=CC(O)C1O (stereo not drawn) [DHCP, 4,5-dihydroxy-2-cyclopenten-1-one]
- MIC [1]: 25 µg/mL (≈ 219 µM)
- MIC [2]: 200 µg/mL (≈ 1750 µM)
- MIC value for cells harboring pSP007 relative to cells with pUC19 [2]: 8 times
- effect on growth ([3]; 50 μM DHCP): growth was slowed after 3 h of incubation
- time to reach the maximum density ([3]; 50 μM DHCP, similar to that without DHCP): 8 h
- effect on growth ([3]; 100 μM DHCP): grew more slowly after 3 h incubation
- maximum cell density ([3]; 100 μM DHCP, versus without DHCP): lower than that without DHCP
- time after which cells stopped growing ([3]; 250 μM DHCP): 5 h
- length of elongated cells (filaments) relative to control cells ([3]; 250 μM DHCP for 8 h, microscopic examination): approximately 15 fold
- effect on growth ([3]; 250 μM DHCP): growth was severely impaired after 3 h of incubation
- time after which cell growth stopped ([3]; 400 μM DHCP): 4 h
- decrease in the colony numbers (E. coli JM83; 300 μM DHCP, LB plates, 37 °C): 100 fold
- colony formation (E. coli JM83; 350 μM DHCP, 1×10^4 cells plated on LB medium): no colonies were obtained
- concentration at which DHCP inhibits cell growth (E. coli JM83; E. coli): ≥ 350 µM

SMILES: NC[C@H]1O[C@H](O[C@H]2[C@H](O)[C@@H](O[C@H]3O[C@H](CO)[C@@H](O)[C@H](N)[C@H]3O)[C@H](N)C[C@@H]2N)[C@H](O)[C@@H](O)[C@@H]1O [kanamycin]
- MIC [1]: 25 µg/mL (≈ 51.6 µM)
- MIC [2]: 50 µg/mL (≈ 103 µM)

SMILES: CN[C@@H]1[C@H](O)[C@H](NC)[C@H]2O[C@@]3(O)C(=O)C[C@@H](C)O[C@H]3O[C@@H]2[C@H]1O [spectinomycin]
- MIC [1]: 12.5 µg/mL (≈ 37.6 µM)
- MIC [2]: 12.5 µg/mL (≈ 37.6 µM)
- MIC value for cells harboring pSP007 relative to cells with pUC19 [2]: same
